Laboratory results published in EPA's ToxRefDB 2.

Key:
[1] = tested on: rat; conditions: Prenatal developmental toxicity study, Oral, Gavage/Intubation, dose end: 16 GD
[2] = tested on: rat; conditions: Multigenerational reproductive toxicity study, sprague dawley, Oral, Feed, dose end: 2 generation
[3] = tested on: rat; conditions: Subchronic oral toxicity in rodents, Feed, dose end: 3 month, group: systemic
[4] = tested on: rat; conditions: Combined chronic toxicity/carcinogenicity, wistar, Oral, Feed, dose end: 24 month, group: systemic
[5] = tested on: dog; conditions: Subchronic oral toxicity in nonrodent, beagle, Feed, dose end: 13 week, group: systemic, systemic / pathology microscopic / kidney / pyelonephritis
[6] = tested on: mouse; conditions: Carcinogenicity, other, Oral, Feed, dose end: 105 week, group: systemic
[7] = tested on: dog; conditions: Chronic toxicity, beagle, Oral, Feed, dose end: 104 week, group: systemic
[8] = tested on: mouse; conditions: Carcinogenicity, cd1, Oral, Feed, dose end: 20 month, group: systemic
[9] = tested on: mouse; conditions: Carcinogenicity; other; Oral; Feed; dose end: 18 month; group: systemic; systemic / pathology microscopic / liver / hypertrophy + systemic / pathology microscopic / liver / necrosis
[10] = tested on: rabbit; conditions: Prenatal developmental toxicity study, new zealand white, Oral, Gavage/Intubation, dose end: 18 GD
[11] = tested on: mouse; conditions: Subchronic oral toxicity in rodents, cd1, Feed, dose end: 13 week, group: systemic, systemic / pathology microscopic / liver / cytomegaly + systemic / pathology microscopic / spleen / hematopoietic cell proliferation + …
[12] = tested on: rat; conditions: Combined chronic toxicity/carcinogenicity; fischer; Oral; Feed; dose end: 104 week; group: systemic; systemic / hematology / methemoglobin / methemoglobin + systemic / pathology microscopic / kidney / mineralization + systemic / pathology …
[13] = tested on: dog; conditions: Subchronic oral toxicity in nonrodent, beagle, Feed, dose end: 13 week, group: systemic, systemic / clinical chemistry / alanine aminotransferase (alt/sgpt) / alanine aminotransferase (alt/sgpt) + systemic / clinical chemistry / …
[14] = tested on: rat; conditions: Prenatal developmental toxicity study, sprague dawley, Oral, Gavage/Intubation, dose end: 15 GD
[15] = tested on: rat; conditions: Subchronic oral toxicity in rodents, fischer, Feed, dose end: 84 day, group: systemic, systemic / clinical chemistry / thyroxine (t4) / thyroxine (t4)
[16] = tested on: dog; conditions: Chronic toxicity; beagle; Oral; Feed; dose end: 52 week; group: systemic; systemic / organ weight / liver / absolute + systemic / organ weight / liver / relative to body weight
[17] = tested on: rat; conditions: Multigenerational reproductive toxicity study, sprague dawley, Oral, Feed, dose end: 2 generation; remark: listed apart in the source
[18] = tested on: dog; conditions: Chronic toxicity, beagle, Oral, Feed, dose end: 52 week, group: systemic
[19] = group: developmental, developmental / developmental malformation / bone / incomplete ossification + systemic / in life observation / body weight / fetal weight
[20] = group: maternal, reproductive / reproductive performance / postimplantation loss / postimplantation loss + systemic / in life observation / body weight / …
[21] = group: offspring, developmental / offspring survival late / [other] / [other]
[22] = group: parental, systemic / organ weight / kidney / relative to body weight + systemic / organ weight / spleen / absolute + systemic / organ weight / spleen…
[23] = group: parental, systemic / organ weight / liver / absolute + systemic / organ weight / liver / relative to body weight
[24] = systemic / clinical chemistry / lipids, total / lipids, total + systemic / organ weight / ovary / relative to body weight + systemic / organ…
[25] = systemic / pathology microscopic / liver / focal cellular change + systemic / pathology microscopic / liver / hypertrophy + systemic / …
[26] = systemic / pathology microscopic / liver / hypertrophy
[27] = systemic / in life observation / body weight / body weight + systemic / in life observation / body weight / body weight gain
[28] = systemic / pathology microscopic / eye / cataract
[29] = systemic / pathology microscopic / eye / cataract + systemic / hematology / erythrocyte (rbc) count differential / erythrocyte (rbc) + …
[30] = group: developmental, developmental / developmental malformation / bone / full supernumerary + developmental / developmental malformation / bone / supernumerary
[31] = group: developmental, developmental / developmental malformation / bone / full supernumerary + developmental / developmental malformation / bone / supernumerary…
[32] = group: maternal, systemic / pathology microscopic / liver / hypertrophy + systemic / pathology microscopic / liver / vacuolization
[33] = group: maternal, systemic / pathology microscopic / liver / hypertrophy + systemic / pathology microscopic / liver / vacuolization + systemic / in life …
[34] = group: developmental, developmental / developmental malformation / bone / delayed ossification + developmental / developmental malformation / bone / full …
[35] = group: maternal, systemic / in life observation / body weight / body weight gain + systemic / in life observation / body weight / body weight + systemic / in…
[36] = total + systemic / clinical chemistry / phosphorus / phosphorus + systemic…
[37] = group: offspring, developmental / offspring survival late / viability index / viability index + reproductive / offspring survival early / offspring survival …
[38] = group: parental, systemic / pathology microscopic / liver / congestion
[39] = systemic / in life observation / body weight / body weight gain

CCOC(=O)C(C)Oc1ccc(Oc2nc3ccc(Cl)cc3o2)cc1 (configuration not stated) [Fenoxaprop-ethyl]
LEL [1, 19]: 100 mg/kg/day | LOAEL [1, 19]: 100 mg/kg/day | NEL [1, 19]: 32 mg/kg/day | NOAEL [1, 19]: 32 mg/kg/day | LEL [1, 20]: 100 mg/kg/day | LOAEL [1, 20]: 100 mg/kg/day | NEL [1, 20]: 32 mg/kg/day | NOAEL [1, 20]: 32 mg/kg/day | LEL [2, 21]: 0.25 mg/kg/day | LOAEL [2, 21]: 0.25 mg/kg/day | NEL [2, 21]: < 0.25 mg/kg/day | NOAEL [2, 21]: < 0.25 mg/kg/day | LEL [2, 22]: 1.94 mg/kg/day | NEL [2, 22]: 0.33 mg/kg/day | LOAEL [2, 23]: 9.05 mg/kg/day | NOAEL [2, 23]: 1.53 mg/kg/day | LEL [3, 24]: 1 mg/kg/day | NEL [3, 24]: < 1 mg/kg/day | LOAEL ([3]; systemic / organ weight / adrenal gland / relative to body weight): 4 mg/kg/day | NOAEL ([3]; systemic / organ weight / adrenal gland / relative to body weight + systemic / clinical chemistry / cholesterol / cholesterol + systemic / …): 1 mg/kg/day | LOAEL ([4]; systemic / clinical chemistry / cholesterol / cholesterol + systemic / clinical chemistry / lipids, total / lipids, total): 9 mg/kg/day | NOAEL ([4]; systemic / clinical chemistry / cholesterol / cholesterol + systemic / clinical chemistry / lipids, total / lipids, total + systemic / organ…): 1.5 mg/kg/day | NEL ([4]; systemic / clinical chemistry / cholesterol / cholesterol + systemic / hematology / leukocyte (wbc) count differential / leukocyte (wbc) + …): 0.25 mg/kg/day | LEL ([4]; systemic / clinical chemistry / cholesterol / cholesterol + systemic / pathology microscopic / liver / glycogen liberation + systemic / …): 1.5 mg/kg/day | LEL [5]: 2 mg/kg/day | LOAEL [5]: 2 mg/kg/day | NEL [5]: 0.4 mg/kg/day | NOAEL [5]: 0.4 mg/kg/day | LOAEL [6, 25]: 16.6 mg/kg/day | NOAEL [6, 25]: 5.7 mg/kg/day | LEL [6, 26]: 5.7 mg/kg/day | NEL [6, 26]: < 5.7 mg/kg/day | LEL ([7]; systemic / in life observation / body weight / body weight): 0.375 mg/kg/day | LOAEL [7, 27]: 1.88 mg/kg/day | NEL [7, 27]: 0.075 mg/kg/day | NOAEL [7, 27]: 0.375 mg/kg/day

CC(C)N(C(=O)COc1nnc(C(F)(F)F)s1)c1ccc(F)cc1 [Flufenacet]
LOAEL [8, 28]: 7.4 mg/kg/day | NOAEL [8, 28]: < 7.4 mg/kg/day | LEL [8, 29]: 7.4 mg/kg/day | NEL [8, 29]: < 7.4 mg/kg/day | LEL [9]: 2.1 mg/kg/day | LOAEL [9]: 2.1 mg/kg/day | NEL [9]: < 2.1 mg/kg/day | NOAEL [9]: < 2.1 mg/kg/day | LEL [10, 30]: 125 mg/kg/day | LOAEL [10, 30]: 125 mg/kg/day | NEL [10, 31]: 25 mg/kg/day | NOAEL [10, 31]: 25 mg/kg/day | LEL [10, 32]: 25 mg/kg/day | LOAEL [10, 32]: 25 mg/kg/day | NEL [10, 33]: 5 mg/kg/day | NOAEL [10, 33]: 5 mg/kg/day | LEL [11]: 64.2 mg/kg/day | LOAEL [11]: 64.2 mg/kg/day | NEL [11]: 18.2 mg/kg/day | NOAEL [11]: 18.2 mg/kg/day | LEL [12]: 1.2 mg/kg/day | LOAEL [12]: 1.2 mg/kg/day | NEL [12]: < 1.2 mg/kg/day | NOAEL [12]: < 1.2 mg/kg/day | LEL [13]: 1.67 mg/kg/day | LOAEL [13]: 6.9 mg/kg/day | NEL [13]: < 1.67 mg/kg/day | NOAEL [13]: 1.7 mg/kg/day | LEL [14, 34]: 125 mg/kg/day | LOAEL [14, 34]: 125 mg/kg/day | NEL [14, 34]: 25 mg/kg/day | NOAEL [14, 34]: 25 mg/kg/day | LOAEL ([14]; group: maternal, systemic / in life observation / body weight / body weight gain): 125 mg/kg/day | LEL [14, 35]: 125 mg/kg/day | NEL [14, 35]: 25 mg/kg/day | NOAEL [14, 35]: 25 mg/kg/day | LOAEL ([15]; total): 6 mg/kg/day | NOAEL ([15]; total): < 6 mg/kg/day | LEL [15, 36]: 6 mg/kg/day | NEL [15, 36]: < 6 mg/kg/day | LEL [16]: 17.3 mg/kg/day | LOAEL [16]: 17.3 mg/kg/day | NEL [16]: 3.15 mg/kg/day | NOAEL [16]: 3.15 mg/kg/day | LEL [17, 37]: 7.3 mg/kg/day | LOAEL [17, 37]: 7.3 mg/kg/day | NEL [17, 37]: 1.4 mg/kg/day | NOAEL [17, 37]: 1.4 mg/kg/day | LEL [17, 38]: 1.4 mg/kg/day | NEL [17, 38]: < 1.4 mg/kg/day | LOAEL ([17]; group: parental, systemic / pathology microscopic / liver / hypertrophy): 7.3 mg/kg/day | NOAEL ([17]; group: parental, systemic / pathology microscopic / liver / hypertrophy + systemic / pathology microscopic / liver / congestion): 1.4 mg/kg/day | LOAEL ([18]; systemic / clinical chemistry / alanine aminotransferase (alt/sgpt) / alanine aminotransferase (alt/sgpt) + systemic / clinical chemistry / …): 26.8 mg/kg/day | LEL [18, 39]: 1.14 mg/kg/day | NEL [18, 39]: < 1.14 mg/kg/day | NOAEL ([18]; systemic / in life observation / body weight / body weight gain + systemic / clinical chemistry / alanine aminotransferase (alt/sgpt) / …): 1.14 mg/kg/day
